Experimental findings from ChEMBL document CHEMBL3045127, “Esterase inhibition by synergists in the western flower thrips Frankliniella occidentalis” (Pest Manag Sci, 2011) are described below.

SMILES strings stand for the structures.

One may read the IC50 as the concentration at which inhibition is half-maximal.

Assay [1] deals with Frankliniella occidentalis. The experiment in a line: Resistance ratio, LC50 for Frankliniella occidentalis MLFOM (western flower thrips) to LC50 for Frankliniella occidentalis ACR. Type of assay: functional.
The test system of assay [2] is Frankliniella occidentalis. The experiment in a line: Insecticidal activity against Frankliniella occidentalis ACR (western flower thrips). It is filed as functional, organism-based.
The test system of assay [3] is Frankliniella occidentalis. The experiment in a line: Insecticidal activity against Frankliniella occidentalis MLFOM (western flower thrips). It is filed as functional.
Assay [4] deals with Frankliniella occidentalis. The experiment in a line: Resistance ratio, LC50 for Frankliniella occidentalis MLFOM (western flower thrips) to LC50 for Frankliniella occidentalis FOR. It is filed as functional.
In assay [5] the test system is Frankliniella occidentalis. The experiment in a line: Insecticidal activity against Frankliniella occidentalis FOR (western flower thrips). Type of assay: functional, organism-based.
Assay [6] can be described thus: Inhibition of Frankliniella occidentalis MET (western flower thrips) total esterase activity.
The nature of assay [7]: Inhibition of Frankliniella occidentalis ACR (western flower thrips) total esterase activity.
The nature of assay [8]: Inhibition of Frankliniella occidentalis FOR (western flower thrips) total esterase activity.
Assay [9] can be described thus: Inhibition of Frankliniella occidentalis MLFOM (western flower thrips) total esterase activity.
Assay [10] relates to Frankliniella occidentalis. The experiment in a line: Resistance ratio, LC50 for Frankliniella occidentalis MLFOM (western flower thrips) to LC50 for Frankliniella occidentalis MET. It is filed as functional.
Assay [11] concerns Frankliniella occidentalis. The assay is described as follows: Insecticidal activity against Frankliniella occidentalis MET (western flower thrips). It is filed as functional.

For `CC1(C)[C@H](C(=O)O[C@H](C#N)c2cccc(Oc3ccccc3)c2)[C@@H]1/C=C\C(=O)OC(C(F)(F)F)C(F)(F)F` [ACRINATHRIN], the RatioLC50 in [1] is recorded as 1430. Besides, the LC50 is 12870 mgAi/L in [2] and 9 mgAi/L in assay [3].

Turning to `CNC(=O)Oc1cccc(/N=C/N(C)C)c1` [FORMETANATE], in assay [4], the RatioLC50 stood at 26. Moreover, the LC50 amounted to 20160 mgAi/L in assay [5] and 765 mgAi/L in assay [3].

As for `CNC(=O)Oc1cc(C)c(SC)c(C)c1` [METHIOCARB], the IC50 in assay [6] worked out at 1.98 µM; in assay [7], 2.71 µM; in assay [8], 2.93 µM; in assay [9] it was 1.92 µM; in assay [5] (Frankliniella occidentalis, FOR), 2.93 µM; in [2] (Frankliniella occidentalis, ACR) it was 2.71 µM. Moreover, the RatioLC50 in assay [10] is listed as 41. Moreover, the LC50 in assay [11] amounted to 620 mgAi/L; in [3] it was 15 mgAi/L.

In the case of `CCCCOCCOCCOCc1cc2c(cc1CCC)OCO2` [PIPERONYL BUTOXIDE], the half-maximal inhibitory concentration (IC50) in assay [6] stood at 2160 µM; in assay [7], 2670 µM; in [8] it was 1910 µM; in assay [9], 2410 µM.

Consider `CCCCSP(=O)(SCCCC)SCCCC` [S,S,S,-TRIBUTYLPHOSPHOROTRITHIOATE], for which the IC50 in [6] was found to be 0.52 µM; in assay [7], 0.45 µM; in assay [8], 0.51 µM; in assay [9], 0.46 µM.
